Data taken from patent publication US10745370B2, “Farnesyl transferase inhibitors and uses thereof” (MACKAY MEMORIAL HOSPITAL, priority 2016, dated 2020).
pIC50: −log10 of the molar value. Where “and” joins values, the source holds several entries; their conditions need not be identical. Equal values may be shown once.

Tests used:
rat PFTase = biological target: T1, rat PFTase (Rattus norvegicus, UniProt Q02293+Q04631); experiment: Inhibition of farnesyl transferase (fluorescence assay); assay type: biochemical; conditions: mean ± SD of three independent experiments
T1 construct: purchased Jena Biosciences
Description: The assay was carried out in 384-well microplates with a final volume of 20 μl by the method modified from the previous report (Long et al., 2009). Briefly, 10 nM of rat PFTase (Jena Biosciences, Jena, Germany) was incubated with the tested compound or DMSO (1%) for 15 min, and then the mixture was added in a solution (50 mM Tris-HCl, pH 7.5, 5 mM MgCl2, 5 mM DTT, 0.1 mM ZnCl2, 0.2% octyl-β-D-glucopyranoside (Sigma, St. Louis, Mo.), 10 μM PFTase substrate dansyl-Gly-Cys-Val-Leu-Ser-OH, and 10 μM farnesyl pyrophosphate (Sigma, St. Louis, Mo.)) to initiate the reaction. The reaction was incubated at 37° C. for 30 min, and the fluorescence was detected by a M5 plate reader (Molecular Devices, CA, USA) at 340 nm excitation and 505 nm emission.

macrophages [1] = experiment: Morphology of macrophages (photographs, Liu's staining); assay type: cell-based, human; conditions: for morphology and adhesion of treated macrophages: 10 μM, FIG. 1 panel B; for morphology of cells by Liu's staining compared with control cells: FIG. 1 panel C
Description: (§1) Mononuclear cells (MNCs) were separated from the peripheral blood of healthy donors obtained with written consent by use of Ficoll-Hypaque density centrifugation, followed by positive selection with magnetic anti-CD14 microbeads.
(§2) The isolated CD14^+ cells were cultivated in Minimum Essential Medium (MEM medium) supplemented with 10% fetal bovine serum (FBS), 100 ng/ml granulocyte-macrophage colony-stimulating factor (GM-CSF, Gentaur), and 50 ng/ml interleukin-4 (IL-4, R&D), and kept in an environment of 37° C. with 5% CO2/95% air.
(§3) To evaluate the effects of the present compound on dendritic cells, the CD14^+ cells were respectively treated with 10 μM of test compound (i.e., Mib-5, Mib-6, Mib-7, Mib-8, Mib-9, and Mib-10) on day 1. Then, on day 3, the cultured medium in each well was replenished by adding half the volume of the cultured medium containing the same treatment as indicated above. Then, on day 6, a cytokine cocktail containing IL-1, IL-6, and tumor necrosis factor-α (TNF-α) was added to induce maturation. On day 7, the differentiated dendritic cells were collected and subjected to further assays, including viability assay, morphology observation, and cell marker staining.
(§4) As to the effects of the present compound on macrophages, the CD14^+ cells were cultivated and treated as indicated above except the addition of cytokine cocktail on day 6. The macrophages were collected on day 6 and subjected to further assays, including viability assay, trypan blue exclusion test, morphology observation, cell marker staining, and phagocytotic activity analysis.
(§5) Cells were transferred to a glass coverslide and covered with solution A (0.5 g of methylene blue and 1.7 g of Eosin yellow dissolved in 1,000 ml of ethanol). After 45 seconds, solution B (1.3 g of azure, 1.4 g of methylene blue, 23.38 g of Na2HPO4, 6.5 g of KH2PO4, dissolved in 1,000 ml of distilled water) was added in the proportion of 2 parts of B to 1 part of A. Mixed the solutions well by blowing the surface. The slide was left standing for 90 seconds and then washed off the staining solution rapidly by running water. The morphology of stained cells was then examined under microscope.

M1 macrophages [2] = experiment: Differentiation analysis, cell viability of M1 macrophages; assay type: cell-based, human; conditions: for Cell viability of M1 macrophages: LPS-induced M1 differentiation, 6 days, control 100%; for change in M1 population of macrophages compared with control: Table 4
Description: (§6) M1 differentiation of freshly isolated CD14^+ cells was induced by the addition of lipopolysaccharide (LPS), while M2 differentiation of freshly isolated CD14^+ cells was induced by the addition of IL-4. Then, the present compounds (e.g., Mib-5, 6, 7, 8, 9, or 10) were added at the indicated dosages. 6 days later, the population of the differentiated macrophages were then determined by cell viability analysis. The cell viability was measured by cell counting kit-8 (CCK-8, Sigma). The half maximal inhibitory concentrations (IC50) of the test compounds on macrophages or dendritic cells were calculated.

M2 macrophages = experiment: Differentiation analysis, cell viability of M2 macrophages; assay type: cell-based, human; conditions: for Cell viability of M2 macrophages: IL-4-induced M2 differentiation, 6 days, control 100%
Description: as §6

macrophages [3] = experiment: Cell marker expression on macrophages (total), flow cytometry; assay type: cell-based, human; conditions: for total expressed level of CD14: FIG. 3; for level of CD206: FIG. 5; for total level of CD80: compared with the control
Description: as §1, §2, §3, §4
(§7) The expression of various types of cell markers, such as CD14, CD206, and CD80 expressed on the surface of macrophages, and CD1a, CD14, CD83, and HLA-DR expressed on the dendritic cells, were respectively detected by fluorescein isothiocyanate (FITC) and phycoerythrin (PE)-conjugated monoclonal antibodies in FACS caliber flowcytometer. Monoclonal antibodies used in this examples included anti-CD14 (IgG-FITC), anti-CD206 (IgG-FITC), anti-CD80-PE, anti-CD1a-PE, anti-CD83-PE and anti-human leukocyte antigen (HLA)-DR-PE. Results were analyzed by CellQuest software.

M1 macrophages [4] = experiment: Cell marker expression on M1 macrophages, flow cytometry; assay type: cell-based, human; conditions: for CD14: M1 population after treatment: Table 5; for CD80: change in M1 population: Table 6; for CD206: change in M1: Table 7; for CD206 expression on M1 macrophages: control 14.27%; for CD80 expression on M1 macrophages: control 71.34%; for CD14 expression on M1 macrophages: control 99.83%
Description: as §6, with “analysis.” for “analysis. The cell viability was measured by cell counting kit-8 (CCK-8, Sigma). The half maximal inhibitory concentrations (IC50) of the test compounds on macrophages or dendritic cells were calculated.”
as §7

dendritic cells [5] = experiment: Trypan blue exclusion analysis of dendritic cells; assay type: cell-based, human; conditions: 10 μM, seven days, FIG. 7
Description: as §1, §2, §3
The dye exclusion test is used to determine the number of viable cells present in a cell suspension. […] In this test, the cells were first treated with a test compound (i.e., Mib-5, 6, 7, 8, 9 or 10) for a certain period of time (e.g., 72 hours), then the cells were harvested and re-suspended in suitable buffer solution. The cell suspension was then mixed with trypan blue dye and then visually examined to determine whether cells had taken up or excluded the dye. A viable cell will have a clear cytoplasm, whereas a nonviable cell will have a blue cytoplasm. The concentration required to reduce viability by 50% (IC50) after 72 hours was extrapolated from the dose-response curves by different concentrations of the test compound using a second-order polynomial regression model and analyzing with SigmaPlot Software (Systat Software Inc., San Jose, Calif.).
(§8) In this example, the effects of the present compounds on dendritic cells were investigated. Briefly, the dendritic cells were respectively treated with 10 μM of Mib-5, Mib-6, Mib-7, Mib-8, or Mib-10. Seven days later, the cells were harvested and subjected to analysis of morphology observation, cell viability, and/or cell marker expression.

dendritic cells [6] = experiment: Morphology of dendritic cells by Liu's staining; assay type: cell-based, human; conditions: 10 μM, seven days, FIG. 8
Description: as §1, §2, §3, §5, §8

Row | SMILES | pIC50 (rat PFTase) | morphology and adhesion of treated macrophages (macrophages [1]) | morphology of cells by Liu's staining compared with control cells (macrophages [1]) | Cell viability of M1 macrophages (M1 macrophages [2]) [%] | change in M1 population of macrophages compared with control (M1 macrophages [2]) | Cell viability of M2 macrophages (M2 macrophages) [%] | change in M2 population of macrophages compared with control (M2 macrophages; Table 4) | total expressed level of CD14 (macrophages [3]) | level of CD206 (macrophages [3]) | total level of CD80 (macrophages [3]) | CD14: M1 population after treatment (M1 macrophages [4]) | CD80: change in M1 population (M1 macrophages [4]) | CD206: change in M1 (M1 macrophages [4]) | CD206 expression on M1 macrophages (M1 macrophages [4]) [%] | CD80 expression on M1 macrophages (M1 macrophages [4]) [%] | CD14 expression on M1 macrophages (M1 macrophages [4]) [%] | levels of viable dendritic cells (dendritic cells [5]) | dendritic cell morphology compared with control group (dendritic cells [6]) | increase of M2 population (M2 macrophages; compared with control, Table 4)
1 | COC1=CC(=O)[C@@]2(c3cc(=O)c4ccc(OC)cc4o3)[C@H](C[C@]3(C)[C@@H](C(=O)O)CC=C4[C@H]3CCCC4(C)C)C(C)=CC[C@H]2C1=O [Mib-5] | > 5.00 and 5.12 | became rounded up, and were less adhesive | not significantly affected | 63.5 | significant reduction | 86.4 | slight decrease | not affected | increase | significantly reduced | remained relatively unchanged | reduction | significant decrease | 5.41 | 11.94 | 97.03 | reduced | cell death reflected in morphology changes, and less dendritic process | 
2 | COC1=CC(=O)[C@@]2(c3cc(=O)c4c(O)cc(O)cc4o3)[C@H](C[C@]3(C)[C@@H](C(=O)O)CC=C4[C@H]3CCCC4(C)C)C(C)=CC[C@H]2C1=O [Mib-7] | > 5.00 and 5.07 | became rounded up, and were less adhesive | not significantly affected | 82.5 | decrease | 136.4 |  | not affected | increase | significantly reduced | remained relatively unchanged | reduction | significant decrease | 4.9 | 23.04 | 98.66 | reduced | cell death reflected in morphology changes, and less dendritic process | about 40%
